Patent US20140243403A1, “TREATING COLORECTAL, PANCREATIC, AND LUNG CANCER” (The General Hospital Corporation, priority 2011, published 2014)
pIC50: −log10 of the molar value.

Experiments:
C170 cells = assay: Cellular proliferation and viability, CRC cell line panel; type: cell-based, human; conditions: KRAS G13D (KRAS-dependent), BRAF WT, CTNNB1 WT, 3 days post-treatment
Method: (§1) (A) IC50 values (μM) for effects on cellular proliferation and viability with the TAK1 kinase inhibitor 5z-7-oxozeaenol in a panel of colon cancer cell lines that have been genotyped as KRAS mutant (KRAS-independent—circles or KRAS-dependent—squares), BRAF mutant (triangles) or wild-type for both KRAS and BRAF (OTHER—diamonds). Effects on growth were measured 3 days post-treatment. Data are represented as the mean of 3 independent experiments and error bars indicate the median±interquartile range. *denotes p<0.00001; n.s.—not significant.
(§2) To further validate TAK1 as a candidate therapeutic target in this context, a potent and selective TAK1 kinase inhibitor, 5Z-7-oxozeaenol (Rawlins et al., 1999), was used. Sensitivity to 5Z-7-oxozeaenol was tested in a panel of 47 colon cancer cell lines with various genotypes (FIGS. 3A and 9A). KRAS and BRAF genotypes were either procured from the Sanger Institute's Catalog of Somatic Mutations (COSMIC) or determined by targeted resequencing (Table 2). KRAS mutation status was determined as described above; the same methods were used to determine the mutation states of BRAF. BRAF exon15 was sequenced with TCATAATGCTTGCTCTGATAGGA (forward; SEQ ID NO:3) and GGCCAAAAATTTAATCAGTGG (reverse; SEQ ID NO:4).

CCK-81 cells = assay: as above; type: cell-based, human; conditions: KRAS WT, BRAF WT, 3 days post-treatment
Method: as §1, §2

COLO-206F cells = assay: as above; type: cell-based, human; conditions: KRAS WT, BRAF V600E, 3 days post-treatment
Method: as §1, §2

COLO-741 cells = assay: as above; type: cell-based, human; conditions: KRAS WT, BRAF V600E, 3 days post-treatment
Method: as §1, §2

CaR-1 cells = assay: as above; type: cell-based, human; conditions: KRAS WT, BRAF WT, 3 days post-treatment
Method: as §1, §2

CoCM-1 cells = assay: as above; type: cell-based, human; conditions: KRAS WT, BRAF WT, APC WT, CTNNB1 WT, 3 days post-treatment
Method: as §1, §2

DLD-1 cells = assay: as above; type: cell-based, human; conditions: KRAS G13D, BRAF WT, APC del, CTNNB1 WT, 3 days post-treatment
Method: as §1, §2

Gp5D cells = assay: as above; type: cell-based, human; conditions: KRAS G12D (KRAS-dependent), BRAF WT, APC del, CTNNB1 WT, 3 days post-treatment
Method: as §1, §2

H630 cells = assay: as above; type: cell-based, human; conditions: KRAS WT, BRAF WT, APC del, CTNNB1 WT, 3 days post-treatment
Method: as §1, §2

HCT-116 cells = assay: as above; type: cell-based, human; conditions: KRAS G13D, BRAF WT, APC WT, CTNNB1 S45del, 3 days post-treatment
Method: as §1, §2

HRT-18 cells = assay: as above; type: cell-based, human; conditions: KRAS G13D, BRAF WT, APC del, CTNNB1 WT, 3 days post-treatment
Method: as §1, §2

HT115 cells = assay: as above; type: cell-based, human; conditions: KRAS WT, BRAF WT, APC WT, CTNNB1 WT, 3 days post-treatment
Method: as §1, §2

HT29 cells = assay: as above; type: cell-based, human; conditions: KRAS WT, BRAF V600E, APC del, CTNNB1 WT, 3 days post-treatment
Method: as §1, §2

HT55 cells = assay: as above; type: cell-based, human; conditions: KRAS WT, BRAF WT, APC del, CTNNB1 WT, 3 days post-treatment
Method: as §1, §2

Hs 1.Int cells = assay: as above; type: cell-based, human; conditions: KRAS WT, BRAF WT, 3 days post-treatment
Method: as §1, §2

Hs 257.T cells = assay: as above; type: cell-based, human; conditions: KRAS G13D, BRAF WT, 3 days post-treatment
Method: as §1, §2

LS-180 cells = assay: as above; type: cell-based, human; conditions: KRAS G12D, BRAF WT, APC WT, CTNNB1 S45A, 3 days post-treatment
Method: as §1, §2

LoVo cells = assay: as above; type: cell-based, human; conditions: KRAS G13D (KRAS-dependent), BRAF WT, APC del, CTNNB1 WT, 3 days post-treatment
Method: as §1, §2

MDST8 cells = assay: as above; type: cell-based, human; conditions: KRAS WT, BRAF V600K, APC nd, CTNNB1 WT, 3 days post-treatment
Method: as §1, §2

SKCO1 cells = assay: as above; type: cell-based, human; conditions: KRAS G12V (KRAS-dependent), BRAF WT, APC del, CTNNB1 WT, 3 days post-treatment
Method: as §1, §2

SW1116 cells = assay: as above; type: cell-based, human; conditions: KRAS G12A (KRAS-dependent), BRAF WT, APC del, CTNNB1 WT, 3 days post-treatment
Method: as §1, §2

SW1463 cells = assay: as above; type: cell-based, human; conditions: KRAS G12C, BRAF WT, APC del, CTNNB1 WT, 3 days post-treatment
Method: as §1, §2

SW837 cells = assay: as above; type: cell-based, human; conditions: KRAS G12C, BRAF WT, APC del, CTNNB1 WT, 3 days post-treatment
Method: as §1, §2

SW948 cells = assay: as above; type: cell-based, human; conditions: KRAS Q61L, BRAF WT, APC del, CTNNB1 WT, 3 days post-treatment
Method: as §1, §2

MCF10A = assay: Sensitivity of non-transformed epithelial cell line; type: cell-based
Method: (§3) (A) 5Z-7-oxozeaenol IC50 values for colorectal cancer cell lines of various genotypes as well as 2 “normal” epithelial cell lines, MCF10A and MDCK (light gray bars). Data are represented as the mean of 3 independent experiments+/−SEM.
(§4) To determine if sensitivity to TAK1 inhibition is specific to colon cancer-derived cell lines, sensitivity to 5Z-7-oxozeaenol was assessed in 5 KRAS mutant pancreatic ductal adenocarcinoma (PDAC) and 4 non-small cell lung cancer (NSCLC) cells, all of which are APC wild-type (FIG. 9B).

MDCK = assay: as above; type: cell-based
Method: as §3, §4

## COc1cc(O)c2c(c1)/C=C/C[C@H](O)[C@H](O)C(=O)/C=C\C[C@H](C)OC2=O [5Z-7-oxozeaenol]
C170 cells
  pIC50: 5.97
CCK-81 cells
  pIC50: 6.39
COLO-206F cells
  pIC50: 6.29
COLO-741 cells
  pIC50: 5.74
CaR-1 cells
  pIC50: 5.22
CoCM-1 cells
  pIC50: 6.03
DLD-1 cells
  pIC50: 5.08
Gp5D cells
  pIC50: 5.75
H630 cells
  pIC50: 5.35
HCT-116 cells
  pIC50: 5.62
HRT-18 cells
  pIC50: 4.22
HT115 cells
  pIC50: 5.88
HT29 cells
  pIC50: 5.10
HT55 cells
  pIC50: 5.81
Hs 1.Int cells
  pIC50: 5.25
Hs 257.T cells
  pIC50: 5.49
LS-180 cells
  pIC50: 5.17
LoVo cells
  pIC50: 6.97
MDST8 cells
  pIC50: 6.65
SKCO1 cells
  pIC50: 7.59
SW1116 cells
  pIC50: 6.91
SW1463 cells
  pIC50: 5.62
SW837 cells
  pIC50: 5.23
SW948 cells
  pIC50: 5.63
MCF10A
  pIC50: 5.26
MDCK
  pIC50: 4.66
